Source: US5866775A, “Glyphosate-tolerant 5-enolpyruvyl-3-phosphoshikimate synthases” (Monsanto Company, priority 1990, dated 1999)

Columns and labels:
[1] = tested on: tobacco plants transformed with glyphosate-tolerant petunia EPSP synthase (pMON567); test: Relative effect of glyphosate spray, GT plants; type: in vivo, Nicotiana tobacam CV H425
Source text: (§1) A culture of A. tumefaciens cells containing pMON567/pGV3111-SE was co-cultured with leaf disks taken from tobacco plants (Nicotiana tobacam CV H425) as described by Horsch (1985). The Agrobacterium cells inserted the variant EPSP synthase gene into the chromosomes of the plant cells. Plant cells resistant to kanamycin were selected and regenerated into differentiated plants by the procedure of Horsch (1985).
(§2) Progeny of these plants were propagated and grown to a rosette diameter of about 10 cm corresponding to a plant age of about four weeks. The plants were sprayed with glyphosate at levels corresponding to 0.4, 2.0 and 3.6 pounds acid equivalent/acre. The effect of glyphosate on the transformed plants were scored at 7, 14 and 28 days. The effect was translated to a numerical scale of 0-10 in which 0 represents total kill and 10 is the normal, unsprayed plant. […] The values represent the best transformant for both wild-type EPSP synthase and glypho sate-tolerant EPSP synthase genes.

[2] = tested on: tobacco plants transformed with wild-type EPSP synthase; test: Relative effect of glyphosate spray, WT plants; type: in vivo, Nicotiana tobacam CV H425
Source text: as §1, §2

[3] = tested on: wildtype petunia plant or transformed with control vector (pMON505); test: Plant response to glyphosate spraying, control plants; type: in vivo; conditions: 0.8 #/acre acid equivalent (0.897 kg/hectare), isopropylamine salt, spray
Method: Four individual representative transgenic seedlings were selected, grown and tested in the testing procedure described below, along with four individual non-transformed (wild-type) petunia seedlings.
The plants were grown in a growth medium in a growth chamber at 26° C. with 12 hours of light per day. The plants were fertilized weekly with a soluble fertilizer and watered as needed. The plants were sprayed at a uniform and reproducible delivery rate of herbicide by use of an automated track sprayer. The glyphosate solution used was measured as pounds of glyphosate acid equivalents per acre, mixed as the glyphosate isopropylamine salt, with an ionic surfactant.
Four individual wild-type (non-transformed) petunia plants were selected for use as control plants. Four individual transformed plants containing the pMON546 vector were selected by kanamycin resistance as described by Horsch, et al. (1985).
The control plants and the transformed plants were sprayed with the isopropylamine salt of glyphosate at the application level listed in Table 2 below; the experimental results obtained are also summarized in Table 2.

[4] = tested on: non-transformed canola plants; test: Glyphosate spray of canola, non-transformed controls; type: in vivo; conditions: 0.56 kg/ha spray
Source text: A total of 15 transgenic canola plants containing the pMON10074 construct, and 2 non-transformed controls were sprayed with glyphosate at a commercial rate of 0.56 kg/ha. The effect of glyphosate on both the vegetative and reproductive performance of the sprayed plants was scored at 7, 14 and 28 days after spray. The effect of glyphosate was translated to a numerical scale of 0-10, where 0 represents total kill and 10 represents the normal, unsprayed plant. The non-transformed controls had vegetative scores of 2 after 14 days and reproductive scores of 0 after 28 days.

[5] = target: T1, EPSPS in crude extracts of tobacco plants transformed with pMON10079 (Petunia hybrida, UniProt P11043, A264T/G173A); test: EPSPS assay of crude plant extracts in the presence of glyphosate; type: biochemical; conditions: 1.0 mM glyphosate; eleven transformed plants
T1 construct: an alanine to threonine substitution at position 192 of the mature EPSPS enzyme has also been introduced into other plant species such as tobacco; expressed in transfected cells; host or cells: transgenic tobacco plants (pMON10079), crude plant extracts
T1 sequence (P11043 73-516 G173A/A264T): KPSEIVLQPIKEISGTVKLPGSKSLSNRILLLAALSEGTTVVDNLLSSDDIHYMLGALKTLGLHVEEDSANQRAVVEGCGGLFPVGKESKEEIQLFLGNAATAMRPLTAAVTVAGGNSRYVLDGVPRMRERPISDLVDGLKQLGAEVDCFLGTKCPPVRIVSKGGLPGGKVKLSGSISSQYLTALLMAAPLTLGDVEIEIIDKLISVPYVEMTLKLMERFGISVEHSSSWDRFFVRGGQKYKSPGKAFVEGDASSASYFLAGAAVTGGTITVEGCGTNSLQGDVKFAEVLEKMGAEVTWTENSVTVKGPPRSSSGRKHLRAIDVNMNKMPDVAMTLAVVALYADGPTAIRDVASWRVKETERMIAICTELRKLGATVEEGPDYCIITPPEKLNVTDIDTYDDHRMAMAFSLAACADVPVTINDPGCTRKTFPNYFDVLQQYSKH
Source text: Thus, the petunia EPSPS variant with the glycine to alanine substitution at position 101 and the alanine to threonine substitution at position 192 does confer glyphosate tolerance to transformed plants.

[6] = tested on: petunia leaf disks transformed with pMON546 (CaMV35S/EPSP synthase gene); test: Leaf disk callus growth on glyphosate medium, transformed disks; type: cell-based; conditions: within 10 days
Method: Leaf disks with diameters of 6 mm (1/4 inch) were taken from surface-sterilized petunia leaves. They were cultured on MS104 agar medium for 2 days to promote partial cell wall formation at the wound surfaces. They were then submerged in a culture of A. tumefaciens cells containing both pMON546 and GV3111-SE which had grown overnight in Luria broth at 28° C., and shaken gently. The leaf disks were removed from the bacterial suspension, blotted dry, and incubated upside down on filter paper placed over "nurse" cultures of tobacco cells, as described by Horsch (1980). After 2 or 3 days, the disks were transferred to petri dishes containing MS media with 500 μg/ml carbenicillin and 0. 0.1, 0.25, or 0.5 mM glyphosate (sodium salt), with no nurse cultures.

[7] = tested on: bacteria harboring pMON342 or pMON9566; test: Glyphosate tolerance of bacteria expressing petunia EPSPS from the double pL promoter; type: cell-based, E. coli; conditions: either plasmid
Method: The double pL promoter used to express the petunia EPSP synthase in pMON342 and pMON9566 leads to a very high level of expression of the enzyme. The enzyme is present at such high concentration that bacteria harboring either of these plasmids are tolerant to very high levels of glyphosate (>5 mM) in growth media, even though the enzyme produced by pMON342 is the wild type form. […] A plasmid for identifying such a promoter was constructed as follows: pMON9544, the precursor to pMON342, was digested with BamHI to remove the pL promoters, and was recircularized by ligation resulting in pMON362. The EcoRI fragment of pMON9556 containing the 3'portion of the petunia EPSPS cDNA was then inserted into the EcoRI site of this plasmid reconstituting the entire coding sequence. The resulting plasmid, pMON364 is identical to pMON342 except that there is no promoter 5' of the EPSP synthase coding sequence.

[8] = tested on: tobacco, sugarbeet, tomato, soybean and cotton plants transformed with the variant EPSPS gene; test: Glyphosate tolerance of other transformed plant species; conditions: in vivo
Source text: A gene encoding the variant EPSPS enzyme of the present invention having a glycine to alanine substitution at position 101 and an alanine to threonine substitution at position 192 of the mature EPSPS enzyme has also been introduced into other plant species such as tobacco, sugarbeet, tomato, soybean and cotton. […] In particular, the glycine to alanine and alanine to threonine substitutions of the present invention have been introduced into a genomic clone of the Arabidopsis EPSPS gene and this gene introduced into canola and tobacco plants using suitable plant transformation vectors.

[9] = 0.4 pounds/acre (0.448 kg/hectare), day 7, best transformant
[10] = 0.4 pounds/acre (0.448 kg/hectare), day 14, best transformant
[11] = 0.4 pounds/acre (0.448 kg/hectare), day 28, best transformant
[12] = 2.0 pounds/acre (2.242 kg/hectare), day 7, best transformant
[13] = 2.0 pounds/acre (2.242 kg/hectare), day 14, best transformant
[14] = 2.0 pounds/acre (2.242 kg/hectare), day 28, best transformant
[15] = 3.6 pounds/acre (4.035 kg/hectare), day 7, best transformant
[16] = 3.6 pounds/acre (4.035 kg/hectare), day 14, best transformant
[17] = 3.6 pounds/acre (4.035 kg/hectare), day 28, best transformant

Structure (SMILES): O=C(O)CNCP(=O)(O)O [glyphosate, N-phosphonomethylglycine]
- Relative Effect of Glyphosate (0 total kill, 10 no effect) [1, 9]: 8.0
- Relative Effect of Glyphosate (0 total kill, 10 no effect) [1, 10]: 8.0
- Relative Effect of Glyphosate (0 total kill, 10 no effect) [1, 11]: 9.0
- Relative Effect of Glyphosate (0 total kill, 10 no effect) [1, 12]: 8.0
- Relative Effect of Glyphosate (0 total kill, 10 no effect) [1, 13]: 8.3
- Relative Effect of Glyphosate (0 total kill, 10 no effect) [1, 14]: 7.0
- Relative Effect of Glyphosate (0 total kill, 10 no effect) [1, 15]: 5.0
- Relative Effect of Glyphosate (0 total kill, 10 no effect) [1, 16]: 7.4
- Relative Effect of Glyphosate (0 total kill, 10 no effect) [1, 17]: 7.0
- Relative Effect of Glyphosate (0 total kill, 10 no effect) [2, 9]: 6.0
- Relative Effect of Glyphosate (0 total kill, 10 no effect) [2, 10]: 7.0
- Relative Effect of Glyphosate (0 total kill, 10 no effect) [2, 11]: 9.0
- Relative Effect of Glyphosate (0 total kill, 10 no effect) [2, 12]: 5.0
- Relative Effect of Glyphosate (0 total kill, 10 no effect) [2, 13]: 1.8
- Relative Effect of Glyphosate (0 total kill, 10 no effect) [2, 14]: 0.8
- Relative Effect of Glyphosate (0 total kill, 10 no effect) [2, 15]: 5.0
- Relative Effect of Glyphosate (0 total kill, 10 no effect) [2, 16]: 1.7
- Relative Effect of Glyphosate (0 total kill, 10 no effect) [2, 17]: 0.8
- Visual Appearance [3]: completely dead
- vegetative score (scale 0-10, 0 total kill, 10 normal unsprayed plant) ([4]; after 14 days): 2
- reproductive score (scale 0-10, 0 total kill, 10 normal unsprayed plant) ([4]; after 28 days): 0
- glyphosate resistance of plant EPSPS [5]: all eleven exhibited glyphosate resistance
- callus growth, transformed versus control disks ([6]; 0.1 mM glyphosate (sodium salt)): little detectable difference between the control disks and the transformed tissue
- callus growth ([6]; 0.25 mM glyphosate (sodium salt)): substantial growth of transformed tissue occurred
- callus growth ([6]; 0.5 mM glyphosate (sodium salt)): a significant number of calli grew from the transformed disks
- glyphosate level tolerated in growth media [7]: > 5 mM
- glyphosate tolerance of transformed plants [8]: exhibited glyphosate tolerance
